Results taken from patent US7704514B2 (priority 2003, dated 2010).
No end group written: not given here.

How the values were obtained:
[1] = test system: Influenza vaccine (Fluvirin)-specific IgG1 and IgG2b antibodies; design: species or system C57BL/6 mice; conditions: mouse, in vivo, sc
[2] = test system: HBsAg-specific IFN-γ and IL-4 production; assay type: in vivo, C57BL/6 mice; conditions: C57BL/6, s.c. flank day 0 and 56; co-injected with HBsAg 5 μg/mouse; Alum, pR and KLK: after boost
Protocol: Experimental setup (5 mice/group/timepoint): • 1. HBsAg • 2. HBsAg+Alum • 3. HBsAg+I-ODN 2 • 4. HBsAg+I-ODN 2b • 5. HBsAg+o-d(IC)13 • 6. HBsAg+pR • 7. HBsAg+KLK • 8. HBsAg+pR+I-ODN 2 • 9. HBsAg+pR+I-ODN 2b • 10. HBsAg+pR+o-d(IC)13 • 11. HBsAg+KLK+I-ODN 2 • 12. HBsAg+KLK+I-ODN 2b • 13. HBsAg+KLK+o-d(IC)13
On day 0 and day 56 mice were injected subcutaneously into the right flank with a total volume of 100 μl/mouse containing the above mentioned compounds. The analysis of the immune response was performed at day 7, day 21 and day 50 after first and second injection, respectively. Spleen cells of five mice per group per time point were restimulated ex vivo with 10 μg/ml HBsAg and ELIspot assays were performed in order to analyse the HBsAg-specific IFN-γ (type 1 immune response) as well as IL-4 (type 2 immune response) production.

[3] = test system: HCV-peptide specific IFN-γ production by CD4+ and CD8+ T cells; assay type: in vivo, HLA-A*0201 transgenic mice (HHD.1); conditions: HHD.1 mice; co-injection of the five HCV-derived peptides (20 μg each) with KLK 10 nmol/o-d(IC)13 0.4 nmol s.c. days 0, 14, 28; day 35
Protocol: Experimental setup (5 mice/group): • 1. HCV peptides • 2. HCV peptides+KLK+o-d(IC)13
On days 0, 14 and 28 HHD.1 mice were injected s.c. into both hind footpads with a total volume of 100 μl/mouse (50 μl/footpad) containing the above listed compounds. At day 35 (7 days after last vaccination) CD4^+ as well as CD8^+ T cells were isolated by magnetic separation (MACS, Miltenyi) from single cell suspensions of spleen cells. T cells were incubated with medium (background control) or were restimulated with irradiated spleen cells from naïve HHD.1 mice as APC in the presence of either the different peptides used for vaccination or the irrelevant peptide p1274. After overnight incubation, the IFN-γ production was analyzed using an ELIspot assay.

[4] = test system: peptide-specific IFN-γ producing cells; design: species or system C57B1/6 mice; conditions: mouse, in vivo, sc
Staphylococcus aureus = conditions: literature (Nakajima 1997; Cho 1999); cited from earlier work
human neutrophils = conditions: cited from earlier work

KLKLLLLLKLK-OH
Influenza vaccine-specific IgG1 (type 2 response), serum ELISA [1]: induces the production of Influenza vaccine-specific IgG1 | Influenza vaccine-specific IgG2b (humoral type 1 response), serum ELISA [1]: no specific IgG2b response is detectable | HBsAg-specific IL-4 production (type 2 immune response) compared to injection of HBsAg alone, spleen cell ELIspot [2]: Slightly increased

CINGVCWTV [p89]
IFN-γ produced by CD4+ T cells against the peptide (ELIspot) [3]: high amounts | IFN-γ production by CD8+ T cells against the peptide (ELIspot) [3]: strong

TMLYNKMEF [p1569]
peptide-specific IFN-γ spots of spleen cells after restimulation with the respective peptide (ELIspot) [4]: specifically release IFN-γ

VTILNLALL [p1664]
peptide-specific IFN-γ spots of spleen cells after restimulation with the respective peptide (ELIspot) [4]: specifically release IFN-γ

Poly-L-Arginine [pR, reference compound]
Influenza vaccine-specific IgG2b (humoral type 1 response), serum ELISA [1]: no specific IgG2b response is detectable | HBsAg-specific IL-4 production (type 2 immune response) compared to injection of HBsAg alone, spleen cell ELIspot [2]: Slightly increased

HMWNFISGIQYLAGLSTLPGNPA [p1426]
IFN-γ produced by CD4+ T cells against the peptide (ELIspot) [3]: high amounts

SSIAAQDAL [p1600]
peptide-specific IFN-γ spots of spleen cells after restimulation with the respective peptide (ELIspot) [4]: do not show any specific spots

GYKVLVLNPSVAAT [p84]
IFN-γ produced by CD4+ T cells against the peptide (ELIspot) [3]: high amounts

DLMGYIPAV [p87]
IFN-γ produced by CD4+ T cells against the peptide (ELIspot) [3]: high amounts | IFN-γ production by CD8+ T cells against the peptide (ELIspot) [3]: strong

KLKLLLLLKLK-NH2
chemotherapeutic activity in Staphylococcus aureus-infected mice (Staphylococcus aureus): significant chemotherapeutic activity | production of the superoxide anion (O2−) by human neutrophils via cell surface calreticulin (human neutrophils): activated to produce the superoxide anion

IASNENMETM [p1574, reference compound]
peptide-specific IFN-γ spots of spleen cells after restimulation with the respective peptide (ELIspot) [4]: do not show any specific spots
